Test results from ChEMBL document CHEMBL5316318, “Structural Modification and Pharmacological Evaluation of Substituted Quinoline-5,8-diones as Potent NSD2 Inhibitors” (J Med Chem, 2023).

How the values were obtained:
[1] = biological target: T1, Histone-lysine N-methyltransferase NSD2 (Homo sapiens, UniProt O96028); experiment: Inhibition of recombinant human NSD2 (941 to 1240 residues) using SAM as substrate incubated for 3 hrs by AlphaLISA assay
T1 sequence (O96028 whole entry): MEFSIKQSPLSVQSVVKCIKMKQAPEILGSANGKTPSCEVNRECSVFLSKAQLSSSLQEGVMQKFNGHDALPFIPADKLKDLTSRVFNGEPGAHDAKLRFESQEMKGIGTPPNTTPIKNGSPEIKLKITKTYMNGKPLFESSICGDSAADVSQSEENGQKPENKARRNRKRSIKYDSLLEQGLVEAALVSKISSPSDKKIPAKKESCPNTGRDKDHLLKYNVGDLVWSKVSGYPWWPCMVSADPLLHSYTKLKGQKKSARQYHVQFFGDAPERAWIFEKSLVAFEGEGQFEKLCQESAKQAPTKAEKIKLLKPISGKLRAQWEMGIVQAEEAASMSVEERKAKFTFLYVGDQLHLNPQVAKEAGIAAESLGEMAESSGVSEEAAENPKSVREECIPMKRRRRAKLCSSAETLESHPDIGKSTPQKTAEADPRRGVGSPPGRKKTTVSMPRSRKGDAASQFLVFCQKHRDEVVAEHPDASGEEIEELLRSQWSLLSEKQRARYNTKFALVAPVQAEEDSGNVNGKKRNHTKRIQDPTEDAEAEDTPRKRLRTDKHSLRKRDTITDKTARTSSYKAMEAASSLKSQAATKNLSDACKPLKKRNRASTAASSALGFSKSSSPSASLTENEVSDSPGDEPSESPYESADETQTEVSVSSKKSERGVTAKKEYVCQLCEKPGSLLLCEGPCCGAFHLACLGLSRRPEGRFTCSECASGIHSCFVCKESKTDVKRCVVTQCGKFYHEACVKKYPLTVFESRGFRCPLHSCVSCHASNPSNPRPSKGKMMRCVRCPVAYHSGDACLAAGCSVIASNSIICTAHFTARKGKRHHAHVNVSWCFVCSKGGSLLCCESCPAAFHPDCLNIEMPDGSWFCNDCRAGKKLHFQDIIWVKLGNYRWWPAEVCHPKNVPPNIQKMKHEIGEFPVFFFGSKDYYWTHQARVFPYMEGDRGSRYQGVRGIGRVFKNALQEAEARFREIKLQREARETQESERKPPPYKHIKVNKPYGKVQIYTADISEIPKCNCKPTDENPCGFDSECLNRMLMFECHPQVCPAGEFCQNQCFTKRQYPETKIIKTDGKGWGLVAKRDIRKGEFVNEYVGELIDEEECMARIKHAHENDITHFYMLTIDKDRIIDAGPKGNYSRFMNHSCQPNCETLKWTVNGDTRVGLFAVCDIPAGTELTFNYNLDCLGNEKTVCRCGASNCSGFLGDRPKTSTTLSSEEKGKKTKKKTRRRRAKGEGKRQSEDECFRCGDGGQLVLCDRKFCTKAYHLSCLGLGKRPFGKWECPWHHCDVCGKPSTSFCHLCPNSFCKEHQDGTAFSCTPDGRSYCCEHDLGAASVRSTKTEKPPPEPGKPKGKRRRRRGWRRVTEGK

KMS-11 = experiment: Antiproliferative activity against human KMS-11 cells assessed as inhibition of cell growth incubated for 6 days by CCK-8 assay; type: functional, cell-based; conditions: KMS-11, 144 h
[2] = Apparent permeability coefficient, Papp in MDCK cells; type: ADME, cell-based, Canis lupus familiaris; conditions: dog
[3] = biological target: Histone-lysine N-methyltransferase EZH2 (Homo sapiens, UniProt Q15910); experiment: Inhibition of EZH2 (unknown origin) using SAM as substrate preincubated for 10 mins followed by substrate addition and measured after 4 hrs by HTRF analysis
Histone-lysine N-methyltransferase EZH2, sequence (Q15910 whole entry): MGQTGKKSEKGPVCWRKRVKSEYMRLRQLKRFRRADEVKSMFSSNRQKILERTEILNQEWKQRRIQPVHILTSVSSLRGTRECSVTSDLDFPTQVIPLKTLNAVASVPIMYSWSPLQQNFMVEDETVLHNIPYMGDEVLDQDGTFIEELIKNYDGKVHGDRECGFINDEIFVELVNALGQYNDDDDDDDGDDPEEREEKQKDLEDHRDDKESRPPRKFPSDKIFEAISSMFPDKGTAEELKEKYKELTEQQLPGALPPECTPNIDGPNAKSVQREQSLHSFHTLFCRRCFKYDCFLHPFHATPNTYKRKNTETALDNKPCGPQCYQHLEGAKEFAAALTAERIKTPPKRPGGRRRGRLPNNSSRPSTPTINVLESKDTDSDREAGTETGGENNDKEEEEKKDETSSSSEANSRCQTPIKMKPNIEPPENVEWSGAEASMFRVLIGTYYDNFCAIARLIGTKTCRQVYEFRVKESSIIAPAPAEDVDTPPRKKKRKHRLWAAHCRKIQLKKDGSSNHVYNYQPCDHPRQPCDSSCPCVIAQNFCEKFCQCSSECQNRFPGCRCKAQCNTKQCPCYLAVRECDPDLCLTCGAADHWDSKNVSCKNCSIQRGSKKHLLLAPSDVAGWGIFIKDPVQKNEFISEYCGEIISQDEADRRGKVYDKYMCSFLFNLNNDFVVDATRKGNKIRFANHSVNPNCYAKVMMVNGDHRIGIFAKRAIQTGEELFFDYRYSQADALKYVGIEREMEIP

[4] = Cmax in ICR mouse at 3 mg/kg, po measured for 24 hrs by LC-MS/MS analysis; type: ADME, organism-based; parameters: dose 3 mg/kg, time 24 hrs, route po; conditions: in vivo
[5] = biological target: Histone-lysine N-methyltransferase NSD3 (Homo sapiens, UniProt Q9BZ95); experiment: Inhibition of NSD3 (unknown origin)
Histone-lysine N-methyltransferase NSD3, sequence (Q9BZ95 whole entry): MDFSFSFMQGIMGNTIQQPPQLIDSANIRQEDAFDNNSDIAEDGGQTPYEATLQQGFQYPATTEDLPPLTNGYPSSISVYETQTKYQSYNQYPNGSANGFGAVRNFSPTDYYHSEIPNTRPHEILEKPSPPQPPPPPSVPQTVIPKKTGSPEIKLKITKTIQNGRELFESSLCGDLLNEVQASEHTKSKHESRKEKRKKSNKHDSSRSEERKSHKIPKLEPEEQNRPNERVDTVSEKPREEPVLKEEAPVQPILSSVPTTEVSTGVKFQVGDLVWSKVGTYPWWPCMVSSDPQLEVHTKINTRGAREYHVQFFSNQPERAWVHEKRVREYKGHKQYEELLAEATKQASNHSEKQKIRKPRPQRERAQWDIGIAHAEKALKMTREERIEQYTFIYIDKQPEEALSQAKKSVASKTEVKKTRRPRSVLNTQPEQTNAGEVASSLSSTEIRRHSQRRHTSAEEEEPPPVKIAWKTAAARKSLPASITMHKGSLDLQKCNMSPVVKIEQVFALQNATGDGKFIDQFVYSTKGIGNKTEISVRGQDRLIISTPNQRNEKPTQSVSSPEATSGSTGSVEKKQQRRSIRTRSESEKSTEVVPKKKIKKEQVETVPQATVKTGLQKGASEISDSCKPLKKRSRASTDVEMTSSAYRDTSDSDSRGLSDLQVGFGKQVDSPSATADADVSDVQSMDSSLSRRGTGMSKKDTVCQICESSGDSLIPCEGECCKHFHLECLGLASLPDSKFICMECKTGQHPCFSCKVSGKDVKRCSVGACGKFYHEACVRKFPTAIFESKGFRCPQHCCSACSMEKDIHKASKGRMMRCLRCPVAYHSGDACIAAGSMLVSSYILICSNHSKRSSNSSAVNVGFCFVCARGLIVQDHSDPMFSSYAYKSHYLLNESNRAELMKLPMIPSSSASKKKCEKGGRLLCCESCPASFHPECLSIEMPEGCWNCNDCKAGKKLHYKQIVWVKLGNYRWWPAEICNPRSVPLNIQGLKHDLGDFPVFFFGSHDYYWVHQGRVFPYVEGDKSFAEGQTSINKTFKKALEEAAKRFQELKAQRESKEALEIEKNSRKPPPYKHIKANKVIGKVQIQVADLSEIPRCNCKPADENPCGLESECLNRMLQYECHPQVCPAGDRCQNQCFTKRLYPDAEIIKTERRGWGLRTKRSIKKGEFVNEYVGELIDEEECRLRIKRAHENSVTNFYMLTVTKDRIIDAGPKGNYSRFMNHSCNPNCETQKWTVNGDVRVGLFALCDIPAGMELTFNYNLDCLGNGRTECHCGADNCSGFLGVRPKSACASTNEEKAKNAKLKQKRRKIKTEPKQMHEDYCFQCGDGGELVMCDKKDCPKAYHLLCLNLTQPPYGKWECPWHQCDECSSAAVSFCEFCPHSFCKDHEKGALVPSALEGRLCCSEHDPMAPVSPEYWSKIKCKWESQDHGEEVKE

[6] = biological target: Histone-lysine N-methyltransferase, H3 lysine-36 specific (Homo sapiens, UniProt Q96L73); experiment: Inhibition of NSD1 (unknown origin)
Histone-lysine N-methyltransferase, H3 lysine-36 specific, sequence (Q96L73 whole entry): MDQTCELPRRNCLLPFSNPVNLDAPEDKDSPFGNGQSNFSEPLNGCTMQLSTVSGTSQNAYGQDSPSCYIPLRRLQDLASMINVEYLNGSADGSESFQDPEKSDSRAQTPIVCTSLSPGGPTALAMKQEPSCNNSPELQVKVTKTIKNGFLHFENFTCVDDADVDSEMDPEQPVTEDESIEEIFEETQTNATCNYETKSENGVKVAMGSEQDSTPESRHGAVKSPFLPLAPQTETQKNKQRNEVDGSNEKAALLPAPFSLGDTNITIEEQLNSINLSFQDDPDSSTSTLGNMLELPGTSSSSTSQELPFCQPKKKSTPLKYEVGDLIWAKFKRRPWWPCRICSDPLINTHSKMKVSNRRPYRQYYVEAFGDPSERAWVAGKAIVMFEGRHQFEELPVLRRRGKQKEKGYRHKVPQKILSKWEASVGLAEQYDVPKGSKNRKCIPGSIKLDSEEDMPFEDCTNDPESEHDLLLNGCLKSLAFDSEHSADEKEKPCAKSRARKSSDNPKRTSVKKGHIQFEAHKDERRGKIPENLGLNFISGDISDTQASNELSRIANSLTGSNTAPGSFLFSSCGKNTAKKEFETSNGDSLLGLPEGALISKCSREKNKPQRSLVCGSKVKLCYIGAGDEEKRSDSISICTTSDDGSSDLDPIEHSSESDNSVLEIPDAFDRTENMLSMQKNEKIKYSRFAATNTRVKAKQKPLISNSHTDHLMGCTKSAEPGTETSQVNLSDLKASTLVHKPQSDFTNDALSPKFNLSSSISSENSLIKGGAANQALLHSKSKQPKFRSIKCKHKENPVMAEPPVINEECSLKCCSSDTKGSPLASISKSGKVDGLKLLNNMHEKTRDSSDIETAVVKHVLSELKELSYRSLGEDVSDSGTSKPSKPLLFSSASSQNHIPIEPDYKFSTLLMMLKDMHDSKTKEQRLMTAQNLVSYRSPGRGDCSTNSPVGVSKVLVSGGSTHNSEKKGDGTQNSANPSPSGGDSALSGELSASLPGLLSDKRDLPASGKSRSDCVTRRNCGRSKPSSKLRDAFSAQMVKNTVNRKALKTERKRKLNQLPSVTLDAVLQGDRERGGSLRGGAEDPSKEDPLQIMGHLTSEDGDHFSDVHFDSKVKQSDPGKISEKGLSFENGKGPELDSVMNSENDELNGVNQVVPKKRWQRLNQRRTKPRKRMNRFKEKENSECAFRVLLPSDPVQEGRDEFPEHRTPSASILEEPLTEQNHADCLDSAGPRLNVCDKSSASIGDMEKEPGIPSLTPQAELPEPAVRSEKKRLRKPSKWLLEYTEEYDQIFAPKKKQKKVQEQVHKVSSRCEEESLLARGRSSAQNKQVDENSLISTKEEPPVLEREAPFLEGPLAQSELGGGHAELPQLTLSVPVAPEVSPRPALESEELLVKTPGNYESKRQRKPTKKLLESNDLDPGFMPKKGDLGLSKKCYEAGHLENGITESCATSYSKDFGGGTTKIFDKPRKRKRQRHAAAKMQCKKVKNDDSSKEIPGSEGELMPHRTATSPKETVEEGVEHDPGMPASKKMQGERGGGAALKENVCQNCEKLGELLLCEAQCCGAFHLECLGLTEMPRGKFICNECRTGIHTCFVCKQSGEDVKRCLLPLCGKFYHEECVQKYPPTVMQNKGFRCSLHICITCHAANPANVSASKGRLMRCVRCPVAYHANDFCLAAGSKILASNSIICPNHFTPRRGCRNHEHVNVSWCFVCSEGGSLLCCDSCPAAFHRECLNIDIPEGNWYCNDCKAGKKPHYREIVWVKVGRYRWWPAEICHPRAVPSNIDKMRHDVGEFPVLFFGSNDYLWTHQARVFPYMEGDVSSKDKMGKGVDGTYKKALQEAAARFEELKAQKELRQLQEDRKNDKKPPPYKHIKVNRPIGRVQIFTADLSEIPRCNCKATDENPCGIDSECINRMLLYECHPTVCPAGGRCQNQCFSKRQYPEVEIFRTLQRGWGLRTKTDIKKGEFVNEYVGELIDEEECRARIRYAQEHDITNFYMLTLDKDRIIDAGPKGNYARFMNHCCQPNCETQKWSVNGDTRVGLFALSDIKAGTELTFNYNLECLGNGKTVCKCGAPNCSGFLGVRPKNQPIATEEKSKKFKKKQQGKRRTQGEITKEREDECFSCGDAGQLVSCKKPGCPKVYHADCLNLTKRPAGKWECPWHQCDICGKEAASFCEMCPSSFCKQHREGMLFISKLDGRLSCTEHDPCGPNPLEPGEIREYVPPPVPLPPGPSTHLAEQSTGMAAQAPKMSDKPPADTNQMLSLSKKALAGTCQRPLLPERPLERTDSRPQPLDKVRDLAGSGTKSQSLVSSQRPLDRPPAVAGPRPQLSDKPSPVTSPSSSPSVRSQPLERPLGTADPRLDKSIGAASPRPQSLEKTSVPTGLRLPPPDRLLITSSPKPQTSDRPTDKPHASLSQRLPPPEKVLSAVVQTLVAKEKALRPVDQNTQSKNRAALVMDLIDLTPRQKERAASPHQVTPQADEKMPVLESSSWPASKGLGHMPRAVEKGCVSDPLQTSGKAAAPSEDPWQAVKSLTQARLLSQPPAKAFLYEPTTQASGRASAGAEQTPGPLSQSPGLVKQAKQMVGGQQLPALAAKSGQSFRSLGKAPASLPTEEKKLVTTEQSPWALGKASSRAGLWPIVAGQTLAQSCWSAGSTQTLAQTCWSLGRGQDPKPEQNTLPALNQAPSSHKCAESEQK

[7] = Half life in ICR mouse at 3 mg/kg, po measured for 24 hrs by LC-MS/MS analysis; type: ADME, organism-based; conditions: in vivo
[8] = AUClast in ICR mouse at 3 mg/kg, po measured for 24 hrs by LC-MS/MS analysis; type: ADME, organism-based; parameters: dose 3 mg/kg, time 24 hrs, route po; conditions: in vivo
[9] = Tmax in ICR mouse at 3 mg/kg, po measured for 24 hrs by LC-MS/MS analysis; type: ADME, organism-based; conditions: in vivo
[10] = biological target: T1, Histone-lysine N-methyltransferase NSD2; experiment: Inhibition of N-terminal polyhistidine tagged human recombinant NSD2 SET domain (934 to 1241 residues) expressed in Escherichia coli using SAM as substrate preincubated for 30 mins followed by substrate addition and measured after 15 mins by MTase-Glo assay
[11] = biological target: T1, Histone-lysine N-methyltransferase NSD2; experiment: Inhibition of human NSD2 (934 to 1241 residues) expressed in Escherichia coli BL21 (DE3) using [3H]-SAM as substrate incubated for 1 hr by TopCount radioactivity counter
[12] = biological target: T1, Histone-lysine N-methyltransferase NSD2; experiment: Competitive inhibition of NSD2 (unknown origin) using SAM as substrate
[13] = biological target: T1, Histone-lysine N-methyltransferase NSD2; experiment: Inhibition of human NSD2 SET domain-mediated H3K36 methylation using histone H3 as substrate by colorimetric analysis
[14] = biological target: T1, Histone-lysine N-methyltransferase NSD2; experiment: Inhibition of human NSD2 SET domain (948 to 1239 residues)-mediated mono-methylation activity assessed as reduction in H3K36me1 level incubated for 1 hr
[15] = biological target: T1, Histone-lysine N-methyltransferase NSD2; experiment: Inhibition of human MMSET (973 to 1203 residues) expressed in Escherichia coli BL21 (DE3) using S-adenosyl-methionine as substrate incubated for 60 mins by AlphaScreen assay
[16] = Observed clearance in ICR mouse at 1 mg/kg, iv measured for 24 hrs by LC-MS/MS analysis; type: ADME, organism-based; conditions: in vivo
[17] = Oral bioavailability in ICR mouse at 3 mg/kg measured for 24 hrs by LC-MS/MS analysis; type: ADME, organism-based; conditions: in vivo
[18] = AUClast in ICR mouse at 1 mg/kg, iv measured for 24 hrs by LC-MS/MS analysis; type: ADME, organism-based; parameters: dose 1 mg/kg, time 24 hrs, route iv; conditions: in vivo
[19] = Half life in ICR mouse at 1 mg/kg, iv measured for 24 hrs by LC-MS/MS analysis; type: ADME, organism-based; conditions: in vivo

C[C@@](O)(C(=O)NC12CC(NC3=CC(=O)c4ncccc4C3=O)(C1)C2)C(F)(F)F
IC50 [1]: 1290 nM

CC(F)(F)C(=O)NC12CC(NC3=C(Cl)C(=O)c4cccnc4C3=O)(C1)C2
IC50 (KMS-11): 2400 nM | Papp [2]: 44.4 ×10⁻⁶ cm/s | IC50 [1]: 300 nM

O=C1C(Cl)=C(NCCc2c[nH]c3ccccc23)C(=O)c2ncccc21
IC50 [1]: 450 nM

O=C1C(NCCC2(O)CCN(C(=O)C3CC3(F)F)CC2)=C(Cl)C(=O)c2ncccc21 (stereo not drawn)
IC50 [1]: 1280 nM

CC(C)(O)[C@H](F)CNC1=C(Cl)C(=O)c2cccnc2C1=O
IC50 (KMS-11): 1680 nM | Papp [2]: 30.8 ×10⁻⁶ cm/s | IC50 [1]: 300 nM

CC(F)(F)C(=O)NCCC1CCN(C2=C(Cl)C(=O)c3ncccc3C2=O)CC1
IC50 [1]: 1350 nM

CC#CC(=O)NC12CC(NC3=C(Cl)C(=O)c4cccnc4C3=O)(C1)C2
IC50 (KMS-11): 2210 nM | Papp [2]: 42 ×10⁻⁶ cm/s | IC50 [1]: 250 nM | IC50 [3]: 1040 nM

CC(C)(O)[C@H](F)CNC1=C(Cl)C(=O)c2ncccc2C1=O
IC50 [1]: 1310 nM

O=C1C(Cl)=C(NC23CC(NC(=O)C4CC4(F)F)(C2)C3)C(=O)c2ncccc21 (stereo not drawn)
IC50 [1]: 410 nM

CC#CC(=O)NC1CN(C2=C(Cl)C(=O)c3ncccc3C2=O)C1
IC50 [1]: 590 nM

CC(F)(F)C(=O)NCCC1CN(C2=C(Cl)C(=O)c3cccnc3C2=O)C1
IC50 [1]: 380 nM

O=C1C(Cl)=C(NC2CCc3ccccc32)C(=O)c2ncccc21 (stereo not drawn)
IC50 (KMS-11): 2520 nM | Papp [2]: 28.8 ×10⁻⁶ cm/s | IC50 [1]: 210 nM

O=C1C(Cl)=C(NCCN2CCOCC2)C(=O)c2ncccc21
IC50 (KMS-11): 1430 nM | Cmax [4]: 21.1 ng/mL | IC50 [5]: 340 nM | IC50 [6]: 150 nM | half-life [7]: 34.2 min | AUC(0-t) at 24 h [8]: 14.5 ng·h/mL | Papp [2]: 31.2 ×10⁻⁶ cm/s | Tmax [9]: 19.8 min | IC50 [10]: 170 nM | IC50 [1]: 230 nM

CC(C)(O)[C@H](F)CNC1=C(Cl)C(=O)c2ccc(N3CCC(F)(F)C3)nc2C1=O
IC50 [1]: 930 nM

O=C1C(NCCc2c[nH]c3ccccc23)=C(Cl)C(=O)c2ncccc21
IC50 [1]: 2290 nM

Nc1ncnc2c1ncn2[C@@H]1O[C@H](C[C@@H](N)CC[C@H](N)C(=O)O)[C@@H](O)[C@H]1O [SINEFUNGIN]
IC50 [11]: 79000 nM

CC(F)(F)C(=O)NC1CN(C2=C(Cl)C(=O)c3cccnc3C2=O)C1
IC50 [1]: 470 nM

CC(C)(O)[C@H](F)CNC1=C(Cl)C(=O)c2ccc(N3CCCC3)nc2C1=O
IC50 [1]: 360 nM

CC(F)(F)C(=O)N1CCC2(CC1)CN(C1=C(Cl)C(=O)c3ncccc3C1=O)C2
IC50 [1]: 3050 nM

NNc1nc2ccccc2nc1S
IC50 [12]: < 3000 nM

CC#CC(=O)NC1CN(C2=C(Cl)C(=O)c3cccnc3C2=O)C1
IC50 [1]: 310 nM

CC#CC(=O)N1CCC2(CC1)CN(C1=C(Cl)C(=O)c3cccnc3C1=O)C2
IC50 [1]: 760 nM

CC(C)(O)[C@H](F)CNC1=C(Cl)C(=O)c2ccc(Cl)nc2C1=O
IC50 (KMS-11): 6070 nM | Papp [2]: 29 ×10⁻⁶ cm/s | IC50 [1]: 250 nM

O=C1C(NCCN2CCOCC2)=C(Cl)C(=O)c2ncccc21
IC50 [1]: 490 nM

O=C1C(Cl)=C(NCCC2(O)CCN(C(=O)C3CC3(F)F)CC2)C(=O)c2ncccc21 (stereo not drawn)
IC50 (KMS-11): 3940 nM | Papp [2]: 21.5 ×10⁻⁶ cm/s | IC50 [1]: 200 nM

C[C@@](O)(C(=O)NC12CC(NC3=C(Cl)C(=O)c4cccnc4C3=O)(C1)C2)C(F)(F)F
IC50 [1]: 420 nM

CC(C)(O)[C@H](F)CNC1=C(Cl)C(=O)c2ccc(N3CC(O)C3)nc2C1=O
IC50 [1]: > 10000 nM

O=C1O[C@@H](C(=O)N2CCN(Cc3nc4sc5c(c4c(=O)[nH]3)CCCC5)CC2)Cc2ccccc21
IC50 [13]: 132000 nM

CC(F)(F)C(=O)NC1CN(C2=C(Cl)C(=O)c3ncccc3C2=O)C1
IC50 [1]: 360 nM

COc1cc2nc(N3CCCN(C)CC3)nc(NC3CCN(Cc4ccccc4)CC3)c2cc1OC
IC50 [14]: 41000 nM

CCN(c1cc(-c2ccc(CN3CCOCC3)cc2)cc(C(=O)NCc2c(C)cc(C)[nH]c2=O)c1C)C1CCOCC1 [TAZEMETOSTAT]
IC50 (KMS-11): > 20000 nM

CC(F)(F)C(=O)N1CCC2(CC1)CN(C1=C(Cl)C(=O)c3cccnc3C1=O)C2
IC50 [1]: 330 nM

CCCN[C@@H](CC[C@H](N)C(=O)O)C[C@H]1O[C@@H](n2cnc3c(N)ncnc32)[C@H](O)[C@@H]1O
IC50 [15]: 3300 nM

CC(C)(O)[C@H](F)CNC1=C(Cl)C(=O)c2ccc(N3C[C@@H](O)[C@H](O)C3)nc2C1=O
IC50 [1]: 1220 nM

CC(F)(F)C(=O)NCCC1CN(C2=C(Cl)C(=O)c3ncccc3C2=O)C1
IC50 [1]: 380 nM

C[C@@](O)(C(=O)N1CCC(O)(CCNC2=C(Cl)C(=O)c3cccnc3C2=O)CC1)C(F)(F)F
IC50 (KMS-11): 8100 nM | Papp [2]: 17.8 ×10⁻⁶ cm/s | IC50 [1]: 240 nM

O=C1C(NC23CC(NC(=O)C4CC4(F)F)(C2)C3)=C(Cl)C(=O)c2ncccc21 (stereo not drawn)
IC50 [1]: 1460 nM

CC#CC(=O)NCCC1CCN(C2=C(Cl)C(=O)c3cccnc3C2=O)CC1
IC50 [1]: 1710 nM

CC(F)(F)C(=O)NCCC1CCN(C2=C(Cl)C(=O)c3cccnc3C2=O)CC1
IC50 [1]: 2340 nM

O=C1C(NC2CCc3ccccc32)=C(Cl)C(=O)c2ncccc21 (stereo not drawn)
IC50 [1]: 450 nM

C[C@@](O)(C(=O)N1CCC(O)(CCNC2=C(Cl)C(=O)c3ncccc3C2=O)CC1)C(F)(F)F
IC50 [1]: 990 nM

CC(F)(F)C(=O)NC12CC(NC3=C(Cl)C(=O)c4ncccc4C3=O)(C1)C2
IC50 (KMS-11): 350 nM | Cmax [4]: 707 ng/mL | clearance [16]: 33.4 mL/min/kg | half-life [7]: 307 min | AUC(0-t) at 24 h [8]: 758 ng·h/mL | bioavailability [17]: 53.1% | AUC(0-t) at 24 h [18]: 476 ng·h/mL | Papp [2]: 49.4 ×10⁻⁶ cm/s | Tmax [9]: 25.2 min | half-life [19]: 115 min | IC50 [1]: 330 nM

CC#CC(=O)NCCC1CCN(C2=C(Cl)C(=O)c3ncccc3C2=O)CC1
IC50 [1]: 490 nM

CC#CC(=O)N1CCC2(CC1)CN(C1=C(Cl)C(=O)c3ncccc3C1=O)C2
IC50 [1]: 2480 nM
